Laboratory results as given in ChEMBL document CHEMBL4304792, “Cinnamonitrile Adjuvants Restore Susceptibility to β-Lactams against Methicillin-Resistant Staphylococcus aureus” (ACS Med Chem Lett, 2019).
≈ marks a conversion by molar mass, not a printed value.

How the values were obtained:
Staphylococcus aureus [1] = experiment: Potentiation of oxacillin induced antibacterial activity against Staphylococcus aureus NRS70 assessed as oxacillin MIC at 20 uM measured after 16 to 20 hrs in presence of 2% NaCl by microdilution broth method (reference value: 64 mg/L); type: functional
Staphylococcus aureus [2] = experiment: Antibacterial activity against Staphylococcus aureus NRS70 measured after 16 to 20 hrs in absence of 2% NaCl by microdilution broth method

Row | Structure (SMILES) | MIC (Staphylococcus aureus [1]) [µg/mL] | MIC (Staphylococcus aureus [2]) [µg/mL]
1 | N#CC(C#N)=Cc1cccc(Cc2ccc(F)c(Cl)c2)c1 | 64 | ≥ 64
2 | Cc1ccc(Oc2cccc(C=C(C#N)C#N)c2)cc1 | 64 | ≥ 64
3 | N#C/C(=C\c1cccc(Oc2ccc(Cl)c(Cl)c2)c1)C(=O)O | 64 | ≥ 64
4 | CS(=O)(=O)/C(C#N)=C/c1cc(Cc2ccc(F)c(C(F)(F)F)c2)ccc1F | 64 | ≥ 64
5 | CS(=O)(=O)/C(C#N)=C/c1cc(-c2ccnc3ccccc23)ccc1F | 64 | ≥ 64
6 | CS(=O)(=O)/C(C#N)=C/c1cccc(Oc2ccc(Cl)c(Cl)c2)c1 | 64 | 16 (≈ 43.4 µM)
7 | N#CC(C#N)=Cc1cccc(Cc2cc(F)c(F)cc2F)c1 | 64 | ≥ 64
8 | CS(=O)(=O)/C(C#N)=C/c1cc(Cc2cccc(C(F)(F)F)c2)ccc1F | 64 | ≥ 64
9 | N#C/C(=C\c1cccc(Oc2ccc(Cl)c(Cl)c2)c1)c1nc2ccccc2s1 | 64 | ≥ 64
10 | CS(=O)(=O)/C(C#N)=C/c1cc(-c2cnc3ccccc3n2)ccc1F | 64 | ≥ 64
11 | N#CC(C#N)=Cc1ccc(Oc2ccc(Cl)cc2)cc1 | 64 | 32 (≈ 114 µM)
12 | Cc1ccc(C(=O)/C(C#N)=C/c2cccc(Oc3ccc(Cl)c(Cl)c3)c2)cc1 | 64 | ≥ 64
13 | COc1ccc(C=C(C#N)C#N)cc1Oc1ccc(Cl)c(Cl)c1 | 64 | ≥ 64
14 | CS(=O)(=O)/C(C#N)=C/c1cc(Cc2ccc(OC(F)(F)F)cc2)ccc1F | 64 | ≥ 64
15 | CC(=C(C#N)C#N)c1cccc(Cc2ccc(Cl)c(Cl)c2)c1 | 64 | ≥ 64
16 | CS(=O)(=O)/C(C#N)=C/c1cc(Cc2cccc(OC(F)(F)F)c2)ccc1F | 64 | ≥ 64
17 | N#C/C(=C\c1cccc(Oc2ccc(Cl)c(Cl)c2)c1)C(N)=O | 64 | 8 (≈ 24 µM)
18 | N#CC(C#N)=Cc1cccc(Cc2ccc(Cl)c(F)c2)c1 | 64 | ≥ 64
19 | N#CC(C#N)=Cc1cccc(Oc2ccc(Cl)nn2)c1 | 64 | ≥ 64
20 | N#CC(C#N)=Cc1cccc(Sc2ccc(Cl)c(Cl)c2)c1 | 64 | ≥ 64
21 | N#C/C(=C\c1cccc(Oc2ccc(Cl)c(Cl)c2)c1)c1ccccn1 | 64 | ≥ 64
22 | N#CC(C#N)=Cc1cccc(Oc2ccccc2)c1 | 64 | 32 (≈ 130 µM)
23 | Cc1ccc(S(=O)(=O)Nc2cccc(C=C(C#N)C#N)c2)cc1 | 64 | ≥ 64
24 | N#CC(C#N)=Cc1cccc(Cc2ccc(Cl)c(Cl)c2)c1 | 64 | ≥ 64
25 | CS(=O)(=O)/C(C#N)=C/c1cc(Cc2ccc(SC(F)(F)F)cc2)ccc1F | 64 | ≥ 64
26 | CS(=O)(=O)/C(C#N)=C/c1cc(Cc2ccc(C(F)(F)F)cc2)ccc1F | 64 | 32 (≈ 83.5 µM)
27 | N#CC(C#N)=Cc1cccc(Oc2ccc(Cl)c(Cl)c2)c1 | 64 | 32 (≈ 102 µM)
28 | N#C/C(=C\c1cccc(Oc2ccc(Cl)c(Cl)c2)c1)c1cccs1 | 64 | ≥ 64
29 | N#CC(C#N)=Cc1cccc(Oc2cc(Cl)cc(Cl)c2)c1 | 64 | 16 (≈ 50.8 µM)
30 | CS(=O)(=O)/C(C#N)=C/c1cc(-c2ccc3ccccc3n2)ccc1F | 64 | ≥ 64

Now from value to compound:

Row | MIC (Staphylococcus aureus [1]) [µg/mL] | MIC (Staphylococcus aureus [2]) [µg/mL] | Structure (SMILES)
31 | 64 | ≥ 64 | N#C/C(=C\c1cccc(Oc2ccc(Cl)c(Cl)c2)c1)c1ccncc1
32 | 64 | ≥ 64 | COc1ccc(Cc2ccc(OC(F)(F)F)c(/C=C(\C#N)S(C)(=O)=O)c2)cc1OC
33 | 4 | 32 (≈ 80.7 µM) | COc1ccc(Cc2ccc(Cl)c(Cl)c2)cc1/C=C(\C#N)S(C)(=O)=O
34 | 64 | ≥ 64 | CC(C)NC(=O)c1ccc(Cc2ccc(F)c(/C=C(\C#N)S(C)(=O)=O)c2)cc1
35 | 64 | 32 (≈ 75.2 µM) | CS(=O)(=O)/C(C#N)=C/c1cc(Cc2ccc3c(c2)OCO3)ccc1OC(F)(F)F
36 | 64 | ≥ 64 | COc1ccc(Cc2ccc(F)c(/C=C(\C#N)S(C)(=O)=O)c2)cc1C(F)(F)F
37 | 64 | 16 (≈ 44 µM) | N#CC(C#N)=Cc1cccc(S(=O)(=O)c2ccc(Cl)c(Cl)c2)c1
38 | 64 | 32 (≈ 101 µM) | N#CC(C#N)Cc1cccc(Oc2ccc(Cl)c(Cl)c2)c1
39 | 64 | ≥ 64 | CS(=O)(=O)/C(C#N)=C/c1cc(Cc2ccc(F)c(F)c2)ccc1F
40 | 64 | ≥ 64 | N#CC(C#N)=Cc1cccc(Oc2ncc(Cl)c(Cl)n2)c1
41 | 64 | ≥ 64 | COc1ccc(Oc2cccc(C=C(C#N)C#N)c2)cc1
42 | 64 | 32 (≈ 79.7 µM) | CS(=O)(=O)/C(C#N)=C/c1cc(Cc2ccc(C(F)(F)F)c(F)c2)ccc1F
43 | 1 | ≥ 64 | N#C/C(=C\c1cc(Cc2ccc(Cl)c(Cl)c2)ccc1F)C(=O)C1CC1
44 | 64 | ≥ 64 | N#CC(C#N)=Cc1cccc(Cc2cccc(Cl)c2)c1
45 | 64 | 32 (≈ 114 µM) | N#CC(C#N)=Cc1cccc(Oc2ccc(Cl)cc2)c1
46 | 16 | ≥ 64 | CCOc1ccc(Cc2ccc(Cl)c(Cl)c2)cc1/C=C(\C#N)S(C)(=O)=O
47 | 64 | 16 (≈ 37.5 µM) | COc1ccc(Cc2ccc(Cl)c(Cl)c2)c(OC)c1/C=C(\C#N)S(C)(=O)=O
48 | 64 | ≥ 64 | COc1ccc(OC)c(Cc2cccc(C=C(C#N)C#N)c2)c1
49 | 8 | 32 (≈ 80.7 µM) | COc1c(/C=C(\C#N)S(C)(=O)=O)cccc1Cc1ccc(Cl)c(Cl)c1
50 | 64 | 32 (≈ 102 µM) | N#CC(C#N)=Cc1cccc(Oc2cccc(C(F)(F)F)c2)c1
51 | 64 | ≥ 64 | N#CC(C#N)=Cc1cccc(Oc2ccc(F)cc2)c1
52 | 16 | 32 (≈ 73.9 µM) | N#C/C(=C\c1cc(-c2ccc(Cl)c(Cl)c2)ccc1F)S(=O)(=O)c1ccccn1
53 | 4 | 8 (≈ 24.2 µM) | N#CC(C#N)=Cc1cc(Cc2ccc(Cl)c(Cl)c2)ccc1F
54 | 4 | ≥ 64 | COc1ccc(Cc2ccc(Cl)c(Cl)c2)cc1C=C(C#N)C#N
55 | 16 | ≥ 64 | CS(=O)(=O)/C(C#N)=C/c1cc(Cc2ccc(Cl)c(Cl)c2)ccc1N1CCOCC1
56 | 16 | ≥ 64 | N#CC(C#N)=Cc1cccc(C(=O)Nc2ccc(Cl)c(Cl)c2)c1
57 | 2 | 8 (≈ 24.2 µM) | N#CC(C#N)=Cc1cccc(Cc2ccc(Cl)c(Cl)c2)c1F
58 | 2 | 8 (≈ 20.8 µM) | CS(=O)(=O)/C(C#N)=C/c1cccc(Cc2ccc(Cl)c(Cl)c2)c1F
59 | 16 | 32 (≈ 90.6 µM) | CS(=O)(=O)/C(C#N)=C/c1cccc(-c2ccc(Cl)c(Cl)c2)n1
